# Data: patent US10118916B2, “Modulators of cystic fibrosis transmembrane conductance regulator protein” (AbbVie S.à.r.l., priority 2016, dated 2018)
# Biological target: T1, F508delCFTR (Homo sapiens, UniProt P13569, DEL508-508)
# T1 construct: expressed in transfected cells; host or cells: CFBE41o- (human lung derived epithelial cell line), doxycycline-inducible
# Test: Cell Surface Expression-Horse Radish Peroxidase (CSE-HRP) assay
# Format: cell-based
# Conditions: CFBE41o-F508delCFTR-HRP cells; for EC50: F508delCFTR cell surface expression, luminescence, 18-24 hours at 33° C., highest concentration 20 μM; for Maximum % activity: maximum at any tested concentration, normalized to on-plate positive control (3 μM)
# In short: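 CFBE41o- cells expressing doxycycline-induced (0.5 μg/mL, 72 h at 37 °C) F508delCFTR with HRP in the fourth extracellular loop; compounds 8 points, 3-fold from 20 μM, 18-24 h at 33 °C. Surface HRP measured by luminol luminescence, normalised to DMSO and 3 μM reference corrector; EC50 from variable-slope sigmoidal fit of triplicate plates.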
# T1 sequence (P13569 with tags, fused parts or gaps DEL508-508): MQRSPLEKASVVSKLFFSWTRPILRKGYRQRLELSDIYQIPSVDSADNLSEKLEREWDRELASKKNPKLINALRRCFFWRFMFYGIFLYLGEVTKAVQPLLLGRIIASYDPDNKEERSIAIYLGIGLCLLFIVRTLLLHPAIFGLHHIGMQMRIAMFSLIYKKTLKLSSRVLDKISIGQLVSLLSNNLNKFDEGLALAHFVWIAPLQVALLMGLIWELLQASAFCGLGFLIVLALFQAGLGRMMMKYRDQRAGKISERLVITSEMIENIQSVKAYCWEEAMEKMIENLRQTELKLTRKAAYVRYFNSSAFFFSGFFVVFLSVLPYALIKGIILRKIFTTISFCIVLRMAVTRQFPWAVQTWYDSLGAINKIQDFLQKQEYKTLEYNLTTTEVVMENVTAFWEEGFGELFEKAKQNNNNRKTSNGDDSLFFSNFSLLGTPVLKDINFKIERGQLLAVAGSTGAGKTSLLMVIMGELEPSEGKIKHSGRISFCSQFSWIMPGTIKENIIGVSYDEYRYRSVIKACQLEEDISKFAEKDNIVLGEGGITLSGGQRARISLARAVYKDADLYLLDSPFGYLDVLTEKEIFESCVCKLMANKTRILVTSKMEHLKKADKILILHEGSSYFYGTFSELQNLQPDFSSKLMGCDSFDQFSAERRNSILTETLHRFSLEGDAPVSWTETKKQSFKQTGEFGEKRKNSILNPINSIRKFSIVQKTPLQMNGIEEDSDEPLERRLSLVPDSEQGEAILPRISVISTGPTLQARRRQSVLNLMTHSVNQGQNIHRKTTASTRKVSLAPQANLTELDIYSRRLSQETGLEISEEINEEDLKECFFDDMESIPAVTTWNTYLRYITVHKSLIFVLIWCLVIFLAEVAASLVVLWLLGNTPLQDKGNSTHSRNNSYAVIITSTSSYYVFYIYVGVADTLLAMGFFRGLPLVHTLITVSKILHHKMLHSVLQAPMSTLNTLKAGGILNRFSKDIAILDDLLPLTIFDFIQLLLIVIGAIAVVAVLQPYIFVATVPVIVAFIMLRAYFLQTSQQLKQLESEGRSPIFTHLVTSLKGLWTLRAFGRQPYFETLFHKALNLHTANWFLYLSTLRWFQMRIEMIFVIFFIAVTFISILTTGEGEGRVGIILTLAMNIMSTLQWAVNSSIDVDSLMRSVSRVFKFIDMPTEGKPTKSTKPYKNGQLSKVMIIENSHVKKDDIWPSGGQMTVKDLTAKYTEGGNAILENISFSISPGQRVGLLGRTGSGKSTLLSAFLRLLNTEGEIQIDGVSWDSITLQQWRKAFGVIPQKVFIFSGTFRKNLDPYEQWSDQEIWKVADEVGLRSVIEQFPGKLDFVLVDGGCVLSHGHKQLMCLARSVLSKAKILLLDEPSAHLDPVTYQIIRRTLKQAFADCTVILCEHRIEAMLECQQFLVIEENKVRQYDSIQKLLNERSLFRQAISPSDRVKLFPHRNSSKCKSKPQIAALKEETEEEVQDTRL
SMILES,EC50,Maximum % activity
"COc1ccc2c(c1)O[C@@H](c1ccc(C(=O)O)cc1)C[C@H]2NC(=O)C1(c2cccc(F)c2)CCCC1 [Example 90, 4-[(2R,4R)-4-{[1-(3-fluorophenyl)cyclopentane-1-carbonyl]amino}-7-methoxy-3,4-dihydro-2H-1-benzopyran-2-yl]benzoic acid]",> 20000 nM,8.1%
"COc1ccc2c(c1)O[C@@H](c1ccc(C(=O)O)cc1)C[C@H]2NC(=O)C1(c2ccccc2F)CCCC1 [Example 91, 4-[(2R,4R)-4-{[1-(2-fluorophenyl)cyclopentane-1-carbonyl]amino}-7-methoxy-3,4-dihydro-2H-1-benzopyran-2-yl]benzoic acid]",> 20000 nM,5.0%
"COc1ccc2c(c1)O[C@@H](c1ccc(C(=O)O)cc1)C[C@H]2NC(=O)C1(c2ccc(C#N)cc2)CC1 [Example 92, 4-[(2R,4R)-4-{[1-(4-cyanophenyl)cyclopropane-1-carbonyl]amino}-7-methoxy-3,4-dihydro-2H-1-benzopyran-2-yl]benzoic acid]",350 nM,62.0%
"COc1ccc2c(c1)O[C@@H](c1ccc(C(=O)O)cc1)C[C@H]2NC(=O)C1(c2ccc(F)cc2)CCCC1 [Example 93, 4-[(2R,4R)-4-{[1-(4-fluorophenyl)cyclopentane-1-carbonyl]amino}-7-methoxy-3,4-dihydro-2H-1-benzopyran-2-yl]benzoic acid]",> 20000 nM,5.7%
"COc1ccc2c(c1)O[C@@H](c1ccc(C(=O)O)cc1)C[C@H]2NC(=O)C1(c2ccccc2Br)CCC1 [Example 94, 4-[(2R,4R)-4-{[1-(2-bromophenyl)cyclobutane-1-carbonyl]amino}-7-methoxy-3,4-dihydro-2H-1-benzopyran-2-yl]benzoic acid]",2630 nM,49.0%
"COc1ccc2c(c1)O[C@@H](c1ccc(C(=O)O)cc1)C[C@H]2NC(=O)C1(c2ccc(Cl)c(Cl)c2)CCC1 [Example 95, 4-[(2R,4R)-4-{[1-(3,4-dichlorophenyl)cyclobutane-1-carbonyl]amino}-7-methoxy-3,4-dihydro-2H-1-benzopyran-2-yl]benzoic acid]",1330 nM,76.0%
"COc1ccc2c(c1)O[C@@H](c1ccc(C(=O)O)cc1)C[C@H]2NC(=O)C1(c2ccccc2Cl)CCC1 [Example 96, 4-[(2R,4R)-4-{[1-(2-chlorophenyl)cyclobutane-1-carbonyl]amino}-7-methoxy-3,4-dihydro-2H-1-benzopyran-2-yl]benzoic acid]",3010 nM,33.0%
"COc1ccc2c(c1)O[C@@H](c1ccc(C(=O)O)cc1)C[C@H]2NC(=O)C1(c2ccccc2)CCCC1 [Example 97, 4-{(2R,4R)-7-methoxy-4-[(1-phenylcyclopentane-1-carbonyl)amino]-3,4-dihydro-2H-1-benzopyran-2-yl}benzoic acid]",> 20000 nM,2.5%
"COc1ccc2c(c1)O[C@@H](c1ccc(C(=O)O)cc1)C[C@H]2NC(=O)C1(c2ccc(Cl)cc2)CCCC1 [Example 98, 4-[(2R,4R)-4-{[1-(4-chlorophenyl)cyclopentane-1-carbonyl]amino}-7-methoxy-3,4-dihydro-2H-1-benzopyran-2-yl]benzoic acid]",> 20000 nM,13.0%
"COc1ccc2c(c1)O[C@@H](c1ccc(C(=O)O)cc1)C[C@H]2NC(=O)C(C)(C)Oc1ccc2c(c1)OCO2 [Example 99, 4-[(2R,4R)-4-{2-[(2H-1,3-benzodioxol-5-yl)oxy]-2-methylpropanamido}-7-methoxy-3,4-dihydro-2H-1-benzopyran-2-yl]benzoic acid]",> 20000 nM,15.9%
"COc1ccc2c(c1)CC[C@@]2(C)C(=O)N[C@@H]1C[C@H](c2ccc(C(=O)O)cc2)Oc2cc(OC)ccc21 [Example 100, 4-[(2R,4R)-7-methoxy-4-{[(1R)-5-methoxy-1-methyl-2,3-dihydro-1H-indene-1-carbonyl]amino}-3,4-dihydro-2H-1-benzopyran-2-yl]benzoic acid]",480 nM,55.3%
"COc1ccc2c(c1)O[C@@H](c1ccc(C(=O)O)cc1)C[C@H]2NC(=O)C1(c2cccc(Cl)c2)CC1 [Example 101, 4-[(2R,4R)-4-{[1-(3-chlorophenyl)cyclopropane-1-carbonyl]amino}-7-methoxy-3,4-dihydro-2H-1-benzopyran-2-yl]benzoic acid]",660 nM,46.0%
"COc1ccc2c(c1)O[C@@H](c1ccc(C(=O)O)cc1)C[C@H]2NC(=O)C1(c2ccccc2)CCC1 [Example 102, 4-{(2R,4R)-7-methoxy-4-[(1-phenylcyclobutane-1-carbonyl)amino]-3,4-dihydro-2H-1-benzopyran-2-yl}benzoic acid]",> 20000 nM,18.1%
"COc1ccc2c(c1)O[C@@H](c1ccc(C(=O)O)cc1)C[C@H]2NC(=O)C1(c2ccccc2OC)CC1 [Example 103, 4-[(2R,4R)-7-methoxy-4-{[1-(2-methoxyphenyl)cyclopropane-1-carbonyl]amino}-3,4-dihydro-2H-1-benzopyran-2-yl]benzoic acid]",4010 nM,29.0%
"COc1ccc2c(c1)O[C@@H](c1ccc(C(=O)O)cc1)C[C@H]2NC(=O)C1(c2ccc(Br)cc2)CCC1 [Example 104, 4-[(2R,4R)-4-{[1-(4-bromophenyl)cyclobutane-1-carbonyl]amino}-7-methoxy-3,4-dihydro-2H-1-benzopyran-2-yl]benzoic acid]",1560 nM,71.0%
"COc1ccc2c(c1)O[C@@H](c1ccc(C(=O)O)cc1)C[C@H]2NC(=O)C1(c2ccccc2F)CC1 [Example 106, 4-[(2R,4R)-4-{[1-(2-fluorophenyl)cyclopropane-1-carbonyl]amino}-7-methoxy-3,4-dihydro-2H-1-benzopyran-2-yl]benzoic acid]",1290 nM,46.0%
"COc1ccc2c(c1)O[C@@H](c1ccc(C(=O)O)cc1)C[C@H]2NC(=O)C(C)(C)Oc1ccc(C#N)cc1 [Example 107, 4-{(2R,4R)-4-[2-(4-cyanophenoxy)-2-methylpropanamido]-7-methoxy-3,4-dihydro-2H-1-benzopyran-2-yl}benzoic acid]",1320 nM,22.4%
"COc1ccc2c(c1)O[C@@H](c1ccc(C(=O)O)cc1)C[C@H]2NC(=O)C1(c2ccc(Cl)cc2)CC1 [Example 108, 4-[(2R,4R)-4-{[1-(4-chlorophenyl)cyclopropane-1-carbonyl]amino}-7-methoxy-3,4-dihydro-2H-1-benzopyran-2-yl]benzoic acid]",170 nM,77.7%
"COc1ccc2c(c1)O[C@@H](c1ccc(C(=O)O)cc1)C[C@H]2NC(=O)C(C)(C)c1ccc(OC(F)(F)F)cc1 [Example 109, 4-[(2R,4R)-7-methoxy-4-{2-methyl-2-[4-(trifluoromethoxy)phenyl]propanamido}-3,4-dihydro-2H-1-benzopyran-2-yl]benzoic acid]",1360 nM,93.0%
"COc1ccc2c(c1)O[C@@H](c1ccc(C(=O)O)cc1)C[C@H]2NC(=O)C(C)(C)c1ccc(Cl)cc1 [Example 110, 4-{(2R,4R)-4-[2-(4-chlorophenyl)-2-methylpropanamido]-7-methoxy-3,4-dihydro-2H-1-benzopyran-2-yl}benzoic acid]",310 nM,85.0%
"COc1ccc2c(c1)O[C@@H](c1ccc(C(=O)O)cc1)C[C@H]2NC(=O)C(C)(C)c1ccc(F)cc1 [Example 111, 4-{(2R,4R)-4-[2-(4-fluorophenyl)-2-methylpropanamido]-7-methoxy-3,4-dihydro-2H-1-benzopyran-2-yl}benzoic acid]",840 nM,47.7%
"COc1ccc2c(c1)O[C@@H](c1ccc(C(=O)O)cc1)C[C@H]2NC(=O)C(C)(C)c1ccc2c(c1)OCCO2 [Example 112, 4-{(2R,4R)-4-[2-(2,3-dihydro-1,4-benzodioxin-6-yl)-2-methylpropanamido]-7-methoxy-3,4-dihydro-2H-1-benzopyran-2-yl}benzoic acid]",360 nM,59.9%
"COc1ccc2c(c1)O[C@@H](c1ccc(C(=O)O)cc1)C[C@H]2NC(=O)C(C)(C)c1ccc(OC)c(F)c1 [Example 113, 4-{(2R,4R)-4-[2-(3-fluoro-4-methoxyphenyl)-2-methylpropanamido]-7-methoxy-3,4-dihydro-2H-1-benzopyran-2-yl}benzoic acid]",60 nM,43.5%
"COc1ccc(C2(C(=O)N[C@@H]3C[C@H](c4ccc(C(=O)O)cc4)Oc4cc(OC)ccc43)CCCC2)cc1 [Example 114, 4-[(2R,4R)-7-methoxy-4-{[1-(4-methoxyphenyl)cyclopentane-1-carbonyl]amino}-3,4-dihydro-2H-1-benzopyran-2-yl]benzoic acid]",> 20000 nM,2.2%
"COc1ccc(C2(C(=O)N[C@@H]3C[C@H](c4ccc(C(=O)O)cc4)Oc4cc(OC)ccc43)CCC2)cc1 [Example 115, 4-[(2R,4R)-7-methoxy-4-{[1-(4-methoxyphenyl)cyclobutane-1-carbonyl]amino}-3,4-dihydro-2H-1-benzopyran-2-yl]benzoic acid]",630 nM,69.8%
"COc1ccc2c(c1)O[C@@H](c1ccc(C(=O)O)cc1)C[C@H]2NC(=O)C1(c2ccc(OC)c(OC)c2)CCC1 [Example 116, 4-[(2R,4R)-4-{[1-(3,4-dimethoxyphenyl)cyclobutane-1-carbonyl]amino}-7-methoxy-3,4-dihydro-2H-1-benzopyran-2-yl]benzoic acid]",3250 nM,27.6%
